Assay results reported in paper PMC6010027, “Iodine-mediated one-pot intramolecular decarboxylation domino reaction for accessing functionalised 2-(1,3,4-oxadiazol-2-yl)anilines with carbonic anhydrase inhibitory action” (Journal of Enzyme Inhibition and Medicinal Chemistry, 2018).

Columns and labels:
Experiment in all cases: stopped-flow CO2 hydrase assay
Assay type in all cases: biochemical
hCA IV = target: T1, hCA IV (Homo sapiens, UniProt P22748)
T1 construct: gene CA4; recombinant; membrane-anchored isoform
T1 sequence (P22748 19-284): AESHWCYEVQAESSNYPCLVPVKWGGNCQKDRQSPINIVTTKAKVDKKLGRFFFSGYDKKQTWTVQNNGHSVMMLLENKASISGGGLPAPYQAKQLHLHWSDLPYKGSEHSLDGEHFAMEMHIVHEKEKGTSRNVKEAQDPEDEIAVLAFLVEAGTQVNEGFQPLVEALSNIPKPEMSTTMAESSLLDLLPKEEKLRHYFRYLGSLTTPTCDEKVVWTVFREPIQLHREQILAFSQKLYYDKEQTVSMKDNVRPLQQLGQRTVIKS
Text: stopped-flow CO2 hydrase assay on hCA IV

hCA I = target: T2, hCA I (Homo sapiens, UniProt P00915)
T2 construct: gene CA1; recombinant; cytosolic isoform
T2 sequence (P00915 2-261): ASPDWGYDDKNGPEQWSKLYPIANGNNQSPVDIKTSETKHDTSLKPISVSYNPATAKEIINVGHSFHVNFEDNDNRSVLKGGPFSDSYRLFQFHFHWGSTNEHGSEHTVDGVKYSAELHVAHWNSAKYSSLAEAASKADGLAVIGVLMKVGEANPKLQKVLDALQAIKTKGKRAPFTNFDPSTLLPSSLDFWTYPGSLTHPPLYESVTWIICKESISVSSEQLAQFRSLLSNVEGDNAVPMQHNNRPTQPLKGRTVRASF
Text: stopped-flow CO2 hydrase assay on hCA I

hCA IX = target: T3, hCA IX (Homo sapiens, UniProt Q16790)
T3 construct: gene CA9; recombinant; transmembrane isoform
Text: stopped-flow CO2 hydrase assay on hCA IX

hCA II = target: T4, hCA II (Homo sapiens, UniProt P00918)
T4 construct: gene CA2; recombinant; cytosolic isoform
Text: stopped-flow CO2 hydrase assay on hCA II

Compound | Ki (hCA IV) [nM] | Ki (hCA I) [nM] | Ki (hCA IX) [nM] | Ki (hCA II) [nM]
Nc1ccccc1-c1nnc(-c2ccc(S(N)(=O)=O)cc2)o1 [8a, 4-(5-(2-Aminophenyl)-1,3,4-oxadiazol-2-yl)benzenesulfonamide] | 7340 | 222 | 1890 | 34.1
Cc1ccc(N)c(-c2nnc(-c3ccc(S(N)(=O)=O)cc3)o2)c1 [8b, 4-(5-(2-Amino-5-methylphenyl)-1,3,4-oxadiazol-2-yl)benzenesulfonamide] | 5610 | 270 | 1600 | 51.5
COc1ccc(N)c(-c2nnc(-c3ccc(S(N)(=O)=O)cc3)o2)c1 [8c, 4-(5-(2-Amino-5-methoxyphenyl)-1,3,4-oxadiazol-2-yl)benzenesulfonamide] | 5920 | 321 | 282 | 16.4
Nc1ccc(F)cc1-c1nnc(-c2ccc(S(N)(=O)=O)cc2)o1 [8d, 4-(5-(2-Amino-5-fluorophenyl)-1,3,4-oxadiazol-2-yl)benzenesulfonamide] | 6330 | 736 | 1600 | 43.7
Nc1ccc(Cl)cc1-c1nnc(-c2ccc(S(N)(=O)=O)cc2)o1 [8e, 4-(5-(2-Amino-5-chlorophenyl)-1,3,4-oxadiazol-2-yl)benzenesulfonamide] | 8240 | 3500 | 2370 | 221
Nc1ccc(OC(F)(F)F)cc1-c1nnc(-c2ccc(S(N)(=O)=O)cc2)o1 [8f, 4-(5-(2-Amino-5-(trifluoromethoxy)phenyl)-1,3,4-oxadiazol-2-yl)benzenesulfonamide] | 2170 | 710 | 2450 | 93.2
Nc1c(F)cccc1-c1nnc(-c2ccc(S(N)(=O)=O)cc2)o1 [8g, 4-(5-(2-Amino-3-fluorophenyl)-1,3,4-oxadiazol-2-yl)benzenesulfonamide] | 2020 | 81.4 | 2270 | 6.4
Cc1cc(C)c(N)c(-c2nnc(-c3ccc(S(N)(=O)=O)cc3)o2)c1 [8h, 4-(5-(2-Amino-3,5-dimethylphenyl)-1,3,4-oxadiazol-2-yl)benzenesulfonamide] | 7590 | 89.1 | 2030 | 17.6
Nc1c(Cl)cc(Cl)cc1-c1nnc(-c2ccc(S(N)(=O)=O)cc2)o1 [8i, 4-(5-(2-Amino-3,5-dichlorophenyl)-1,3,4-oxadiazol-2-yl)benzenesulfonamide] | 6780 | 813 | 2740 | 46.4
Nc1ccccc1-c1nnc(-c2cccc(S(N)(=O)=O)c2)o1 [8j, 3-(5-(2-Aminophenyl)-1,3,4-oxadiazol-2-yl)benzenesulfonamide] | 526 | 3310 | 2920 | 46.9
Cc1ccc(N)c(-c2nnc(-c3cccc(S(N)(=O)=O)c3)o2)c1 [8k, 3-(5-(2-Amino-5-methylphenyl)-1,3,4-oxadiazol-2-yl)benzenesulfonamide] | 437 | 5830 | 2960 | 64.6
COc1ccc(N)c(-c2nnc(-c3cccc(S(N)(=O)=O)c3)o2)c1 [8l, 3-(5-(2-Amino-5-methoxyphenyl)-1,3,4-oxadiazol-2-yl)benzenesulfonamide] | 588 | 3510 | 2720 | 516
Nc1ccc(F)cc1-c1nnc(-c2cccc(S(N)(=O)=O)c2)o1 [8m, 3-(5-(2-Amino-5-fluorophenyl)-1,3,4-oxadiazol-2-yl)benzenesulfonamide] | 548 | 747 | 2570 | 307
Nc1ccc(OC(F)(F)F)cc1-c1nnc(-c2cccc(S(N)(=O)=O)c2)o1 [8n, 3-(5-(2-Amino-5-(trifluoromethoxy)phenyl)-1,3,4-oxadiazol-2-yl)benzenesulfonamide] | 9430 | 344 | 255 | 480
Nc1c(F)cccc1-c1nnc(-c2cccc(S(N)(=O)=O)c2)o1 [8o, 3-(5-(2-Amino-3-fluorophenyl)-1,3,4-ovxadiazol-2-yl)benzenesulfonamide] | 522 | 731 | 140 | 86.3
